Structures are written as SMILES. Some results are limits rather than exact numbers.

The target of the experiment is T1, WT/R232 STING protein (Homo sapiens, UniProt Q86WV6, H232R).
T1 construct: host or cells: HEK293T
Kind of experiment: Luciferase reporter assay in HEK293T-hSTING-Luciferase cells, WT/R232. Type of experiment: cell-based. The conditions noted are these: 20 hr stimulation, read-out: R232 Activity (EC50 range). An excerpt: • a) Stable STING expressing cells—Stable HEK293T STING-expressing cell lines were generated using plasmids purchased from Invivogen, Calif., USA, that contain STING cDNA cloned into the pUNO-1 vector under hEF1-HTLV promoter and containing the Blasticidin selection cassette. The plasmids hSTING(R232), hSTING(H232), hSTING(HAQ) were directly procured from Invivogen while hSTING (AQ) and hSTING (Q) were derived from hSTING(HAQ) and hSTING (R232) plasmids respectively by using a PCR based site directed mutagenesis method. These vectors were individually transfected into HEK293T cells using Lipofectamine (Invitrogen) and transfected cells were selected under Blasticidin selection. These transfected cells were further subjected to clonal selection using the limiting dilution method to obtain clonally pure populations of HEK cells transfected with each of the above mentioned human STING variants. Only those clones were selected in which ligand independent activation of STING was minimal. • b) Stable Luciferase reporter gene expressing cells—Stable HEK293T Luciferase reporter gene expressing cell lines were generated using pCDNA4 plasmids under an IRF-inducible promoter. This promoter is comprised of five tandem interferon-stimulated response elements (ISRE) fused to an ISG54 minimal promoter. This vector was transfected into HEK293T cells using Lipofectamine (Invitrogen) and transfected cells were selected under Zeocin selection. These transfected cells were further subjected to clonal selection using the limiting dilution method to obtain clonally pure populations of HEK cells transfected the Luciferase reporter construct. Only those clones were selected in which ligand independent induction of luciferase was minimal.
5×10^5 clonally selected HEK293T-hSTING-Luciferase cells were seeded in 384-well plates in growth medium and stimulated with novel compounds. After 20 hr of stimulation supernatant were removed and secretary reporter gene activity were measured using the Quanti-Luc detection system (Invivogen) on a Spectramax i3X luminometer.
All compounds were first tested in a primary screen using WT/R232 STING protein to obtain a ‘fold-induction’ over baseline levels of protein activity.

T1 sequence (Q86WV6 whole entry H232R): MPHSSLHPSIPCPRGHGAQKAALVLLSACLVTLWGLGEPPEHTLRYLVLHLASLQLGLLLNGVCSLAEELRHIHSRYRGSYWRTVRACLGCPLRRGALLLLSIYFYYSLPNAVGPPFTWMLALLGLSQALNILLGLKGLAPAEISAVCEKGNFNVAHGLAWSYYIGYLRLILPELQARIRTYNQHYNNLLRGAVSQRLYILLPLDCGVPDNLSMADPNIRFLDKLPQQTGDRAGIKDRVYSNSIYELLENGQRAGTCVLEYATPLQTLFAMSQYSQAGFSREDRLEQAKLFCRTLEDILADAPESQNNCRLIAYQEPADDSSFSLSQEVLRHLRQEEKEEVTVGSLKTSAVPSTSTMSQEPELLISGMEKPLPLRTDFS

For the compound `CN(Cc1ccco1)C(=O)c1ccc2c(c1)N(Cc1ccccc1)C(=O)CS2` [Example 33, 4-benzyl-N-(furan-2-ylmethyl)-N-methyl-3-oxo-3,4-dihydro-2H-benzo[b][1,4] thiazine-6-carboxamide], the EC50 (commonly the concentration needed to bring the measured effect to its halfway point) is > 10 µM.
Regarding `O=C(NCC1CCCC1)c1ccc2c(c1)N(Cc1c(F)cccc1Cl)C(=O)CS2` [Example 35, 4-(2-chloro-6-fluorobenzyl)-N-(cyclopentyl-methyl)-3-oxo-3,4-dihydro-2H-benzo[b][1,4] thiazine-6-carboxamide], the EC50 was > 10 µM.
The same measure for `Cc1ccc(CNC(=O)c2ccc3c(c2)N(Cc2c(F)cccc2Cl)C(=O)CS3)cn1` [Example 36, 4-(2-chloro-6-fluorobenzyl)-N-((6-methyl-pyridin-3-yl)methyl)-3-oxo-3,4-dihydro-2H-benzo[b-1,4]thiazine-6-carboxamide]: > 10 µM.
With `O=C(NCc1cccc(F)c1)c1ccc2c(c1)N(Cc1c(F)cccc1Cl)C(=O)CS2` [Example 38, 4-(2-chloro-6-fluorobenzyl)-N-(3-fluorobenzyl)-3-oxo-3,4-dihydro-2H-benzo[b-1,4]thiazine-6-carboxamide] the figure was 1 to 10 µM; with `N#CCC(CNC(=O)c1ccc2c(c1)N(Cc1c(F)cccc1Cl)C(=O)CS2)c1ccccc1` (stereo not drawn) [Example 41, 4-(2-chloro-6-fluorobenzyl)-N-(3-cyano-2-phenylpropyl)-3-oxo-3,4-dihydro-2H-benzo[b-1,4]thiazine-6-carboxamide], > 10 µM; with `O=C(NC(c1ccccc1)c1ccccc1)c1ccc2c(c1)N(Cc1ccccc1F)C(=O)CS2` [Example 42, N-benzhydryl-4-(2-fluorobenzyl)-3-oxo-3,4-dihydro-2H-benzo[b][1,4] thiazine-6-carboxamide], > 10 µM.
As for `O=C(NCC(c1ccccc1)C1CCCCC1)c1ccc2c(c1)N(Cc1c(F)cccc1Cl)C(=O)CS2` (stereo not drawn) [Example 43, 4-(2-chloro-6-fluorobenzyl)-N-(2-cyclohexyl-2-phenylethyl)-3-oxo-3,4-dihydro-2H-benzo[b][1,4] thiazine-6-carboxamide], the EC50 is > 10 µM.
As to `O=C(NCC1CCCN(Cc2ccccc2)C1)c1ccc2c(c1)N(Cc1ccccc1F)C(=O)CS2` (stereo not drawn) [Example 44, N-((1-benzylpiperidin-3-yl)methyl)-4-(2-fluorobenzyl)-3-oxo-3,4-dihydro-2H-benzo[b][1,4] thiazine-6-carboxamide], the EC50 was > 10 µM.
Take `O=C(NCC1CCN(c2ccccc2)CC1)c1ccc2c(c1)N(Cc1ccccc1F)C(=O)CS2` [Example 45, 4-(2-fluorobenzyl)-3-oxo-N-((1-phenyl-piperidin-4-yl)methyl)-3,4-dihydro-2H-benzo[b][1,4] thiazine-6-carboxamide]: the EC50 was > 10 µM.
With `O=C(NCc1ccccc1-c1ccccc1)c1ccc2c(c1)N(Cc1c(F)cccc1Cl)C(=O)CS2` [Example 46, N-([1,1′-biphenyl]-2-ylmethyl)-4-(2-chloro-6-fluorobenzyl)-3-oxo-3,4-dihyddro-2H-benzo[b][1,4] thiazine-6-carboxamide] the figure was > 10 µM; with `O=C(NCc1cccc(-c2ccccc2)c1)c1ccc2c(c1)N(Cc1c(F)cccc1Cl)C(=O)CS2` [Example 47, N-([1,1′-biphenyl]-3-ylmethyl)-4-(2-chloro-6-fluorobenzyl)-3-oxo-3,4-dihydro-2H-benzo[b][1,4] thiazine-6-carboxamide], > 10 µM.
The same measure for `O=C(NCC1CCN(Cc2ccccc2)CC1)c1ccc2c(c1)N(Cc1c(F)cccc1Cl)C(=O)CS2` [Example 48, N-((1-benzylpiperidin-4-yl)methyl)-4-(2-chloro-6-fluorobenzyl)-3-oxo-3,4-dihydro-2H-benzo[b][1,4] thiazine-6-carboxamide]: > 10 µM; for `O=C(NCC1CCCN(c2ccccc2)C1)c1ccc2c(c1)N(Cc1ccccc1F)C(=O)CS2` (stereo not drawn) [Example 49, 4-(2-fluorobenzyl)-3-oxo-N-((1-phenyl-piperidin-3-yl)methyl)-3,4-dihydro-2H benzo[b][1,4] thiazine-6-carboxamide]: > 10 µM; for `O=C(NCc1ccoc1)c1ccc2c(c1)N(Cc1ccccc1)C(=O)CS2` [Example 50, 4-benzyl-N-(furan-3-ylmethyl)-3-oxo-3,4-dihydro-2H-benzo[b-1,4]thiazine-6-carboxamide]: > 10 µM.
The same measure for `O=C(NCc1n[nH]c(=O)c2ccccc12)c1ccc2c(c1)N(Cc1ccccc1)C(=O)CS2` [Example 51, 4-benzyl-3-oxo-N-((4-oxo-3,4-dihydrophthalazin-1-yl)methyl)-3,4-dihydro-2H-benzo[b-1,4]thiazine-6-carboxamide]: > 10 µM.
In the case of `Nc1ccc(CNC(=O)c2ccc3c(c2)N(Cc2ccccc2)C(=O)CS3)cn1` [Example 52, N-((6-aminopyridin-3-yl)methyl)-4-benzyl-3-oxo-3,4-dihydro-2H-benzo[b-1,4]thiazine-6-carboxamide], the EC50 was > 10 µM.
The same measure for `CN(C)CC(NC(=O)c1ccc2c(c1)N(Cc1ccccc1)C(=O)CS2)c1ccccc1` (stereo not drawn) [Example 53, 4-benzyl-N-(2-(dimethylamino)-1-phenylethyl)-3-oxo-3,4-dihydro-2H-benzo[b-1,4]thiazine-6-carboxamide]: > 10 µM; for `O=C(NCc1ncccn1)c1ccc2c(c1)N(Cc1ccccc1)C(=O)CS2` [Example 54, 4-benzyl-3-oxo-N-(pyrimidin-2-ylmethyl)-3,4-dihydro-2H-benzo[b-1,4]thiazine-6-carboxamide]: > 10 µM.
Consider `O=C(NCc1cccc(Cl)c1Cl)c1ccc2c(c1)N(Cc1ccccc1)C(=O)CS2` [Example 55, 4-benzyl-N-(2,3-dichlorobenzyl)-3-oxo-3,4-dihydro-2H-benzo[b-1,4]thiazine-6-carboxamide], for which the EC50 was > 10 µM.
The same measure for `N#CCN(Cc1ccccc1)C(=O)c1ccc2c(c1)N(Cc1ccccc1)C(=O)CS2` [Example 56, N,4-dibenzyl-N-(cyanomethyl)-3-oxo-3,4-dihydro-2H-benzo[b-1,4]thiazine-6-carboxamide]: > 10 µM.
With `CC(NC(=O)c1ccc2c(c1)N(Cc1ccccc1)C(=O)CS2)c1ccc(S(C)(=O)=O)cc1` (stereo not drawn) [Example 57, 4-benzyl-N-(1-(4-(methylsulfonyl)phenyl)ethyl)-3-oxo-3,4-dihydro-2H-benzo[b-1,4]thiazine-6-carboxamide] the figure was > 10 µM; with `O=C(NCc1cnccn1)c1ccc2c(c1)N(Cc1ccccc1)C(=O)CS2` [Example 58, 4-benzyl-3-oxo-N-(pyrazin-2-ylmethyl)-3,4-dihydro-2H-benzo[b-1,4]thiazine-6-carboxamide], > 10 µM; with `O=C(NCc1ncco1)c1ccc2c(c1)N(Cc1ccccc1)C(=O)CS2` [Example 59, 4-benzyl-N-(oxazol-2-ylmethyl)-3-oxo-3,4-dihydro-2H-benzo[b-1,4]thiazine-6-carboxamide], > 10 µM.
Take `O=C(NCc1ccsc1)c1ccc2c(c1)N(Cc1ccccc1)C(=O)CS2` [Example 61, 4-benzyl-3-oxo-N-(thiophen-3-ylmethyl)-3,4-dihydro-2H-benzo[b-1,4]thiazine-6-carboxamide]: the EC50 fell in the range of 1 to 10 µM.
With `Cc1ccc(CNC(=O)c2ccc3c(c2)N(Cc2ccccc2)C(=O)CS3)o1` [Example 62, 4-benzyl-N-((5-methylfuran-2-yl)methyl)-3-oxo-3,4-dihydro-2H-benzo[b-1,4]thiazine-6-carboxamide] the figure was 1 to 10 µM; with `Cc1cnc(CNC(=O)c2ccc3c(c2)N(Cc2ccccc2)C(=O)CS3)o1` [Example 63, 4-benzyl-N-((5-methyloxazol-2-yl)methyl)-3-oxo-3,4-dihydro-2H-benzo[b-1,4]thiazine-6-carboxamide], > 10 µM.
Consider `Cc1cnc(CNC(=O)c2ccc3c(c2)N(Cc2ccccc2)C(=O)CS3)s1` [Example 64, 4-benzyl-N-((5-methylthiazol-2-yl)methyl)-3-oxo-3,4-dihydro-2H-benzo[b-1,4]thiazine-6-carboxamide], for which the EC50 was > 10 µM.
The same measure for `Cc1csc(CNC(=O)c2ccc3c(c2)N(Cc2ccccc2)C(=O)CS3)n1` [Example 65, 4-benzyl-N-((4-methylthiazol-2-yl)methyl)-3-oxo-3,4-dihydro-2H-benzo[b-1,4]thiazine-6-carboxamide]: > 10 µM; for `Cc1noc(CNC(=O)c2ccc3c(c2)N(Cc2ccccc2)C(=O)CS3)n1` [Example 66, 4-benzyl-N-((3-methyl-1,2,4-oxadiazol-5-yl)methyl)-3-oxo-3,4-dihydro-2H-benzo[b-1,4]thiazine-6-carboxamide]: 1 to 10 µM; for `Cn1nccc1CNC(=O)c1ccc2c(c1)N(Cc1ccccc1)C(=O)CS2` [Example 67, 4-benzyl-N-((1-methyl-1H-pyrazol-5-yl)methyl)-3-oxo-3,4-dihydro-2H-benzo[b-1,4]thiazine-6-carboxamide]: > 10 µM.

For the origin of these results see patent US20200138827A1, “SMALL MOLECULE MODULATORS OF HUMAN STING” (Curadev Pharma Limited, priority 2017, published 2020).
